Usually Kd stands for the free concentration of one partner at which half of the binding sites on the other are occupied at equilibrium, for simple one-to-one binding. Low values mean tighter binding, high ones weaker binding.

The assay addresses T1, LeETR1 (Solanum lycopersicum, UniProt Q41342).
T1 construct: made in house; host or cells: E. coli
T1 sequence (Q41342 1-754): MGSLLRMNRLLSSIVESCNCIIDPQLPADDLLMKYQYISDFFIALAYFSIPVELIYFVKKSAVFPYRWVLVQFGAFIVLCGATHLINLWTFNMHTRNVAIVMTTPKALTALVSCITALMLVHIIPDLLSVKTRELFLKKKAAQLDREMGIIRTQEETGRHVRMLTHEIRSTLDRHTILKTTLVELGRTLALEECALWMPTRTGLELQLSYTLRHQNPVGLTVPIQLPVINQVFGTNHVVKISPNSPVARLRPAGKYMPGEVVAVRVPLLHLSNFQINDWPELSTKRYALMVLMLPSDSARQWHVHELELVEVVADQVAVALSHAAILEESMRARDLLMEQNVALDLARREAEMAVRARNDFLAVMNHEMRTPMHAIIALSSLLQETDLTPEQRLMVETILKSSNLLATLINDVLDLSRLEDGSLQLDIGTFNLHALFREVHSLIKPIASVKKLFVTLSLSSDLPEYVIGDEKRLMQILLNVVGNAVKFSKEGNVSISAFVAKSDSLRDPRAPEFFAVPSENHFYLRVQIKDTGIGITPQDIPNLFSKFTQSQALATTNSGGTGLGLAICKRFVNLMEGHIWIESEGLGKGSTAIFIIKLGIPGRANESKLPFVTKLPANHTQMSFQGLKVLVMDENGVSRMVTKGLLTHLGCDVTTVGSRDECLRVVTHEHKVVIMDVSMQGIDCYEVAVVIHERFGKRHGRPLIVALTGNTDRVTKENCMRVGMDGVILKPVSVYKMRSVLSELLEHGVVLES
Briefly: MST NOP-1 binding to LeETR1. To be noted: 50 nM LeETR1 labeled with Alexa Fluor 488-Maleimide, NOP-1 3.8 nM to 31 μM, 50 mM Tris-HCl pH 8.0, 300 mM NaCl, 0.015% (w/v) Fos-Choline-16, 80% MST power, 1:1 stoichiometry, mean +/− standard deviation. More on the design: species or system tomato. An excerpt: To substantiate the inhibitory role of NOP-1 in LeEIN2-LeETR1 complex formation, NOP-1 binding to LeETR1 was studied by microscale thermophoresis (MST) as described in the Methods section. […] The Kd for the LeETR1-NOP1 interaction compares to the affinities of the EIN2-ETR1 interaction in Arabidopsis[10][11] and tomato (this work) emphasizing that the NOP-1 peptide can efficiently compete for ETR1 binding and disrupt EIN2-ETR1 complex formation.
Analysis of LeETR1-LeEIN2 complex formation, NOP-1 binding to LeETR1 and determination of the respective dissociation constants Kd was performed by MST[33][34][35]. For protein-protein interaction studies LeETR1 was labeled with Alexa Fluor 488 succinimidyl-ester (Life Technologies) in a buffer containing 50 mM potassium phosphate pH 8.0, 300 mM NaCl and 0.015% (w/v) Fos-Choline-16 according to the manufacturer’s protocol. […]
For quantification of NOP-1 binding to tomato receptor protein, recombinant LeETR1 was labeled with Alexa Fluor 488-Maleimide (Life Technologies) in a buffer containing 50 mM potassium phosphate pH 8.0, 300 mM NaCl, 0.015% (w/v) Fos-Choline-16 following the manufacturer’s protocol. […] Protein-peptide mixtures were transferred into glass capillaries and MST was measured with 80% MST power. […] The dissociation constant Kd was calculated according to a model assuming a 1:1 stoichiometry per binding partner.

As to `CC(C)C[C@H](NC(=O)[C@H](CCCNC(=N)N)NC(=O)[C@H](CCCNC(=N)N)NC(=O)[C@H](CCCCN)NC(=O)[C@H](Cc1ccc(O)cc1)NC(=O)[C@H](CCCNC(=N)N)NC(=O)[C@H](CCCCN)NC(=O)[C@@H](N)CC(C)C)C(N)=O` [NOP-1, LKRYKRRL-NH2], the Kd was approximately 150 nM.
